Experiments:
[1] = Optical characteristics of pH-sensitive fluorescent probes (absorption, emission, fluorescence quantum yield); type: physicochemical; conditions: for Φfl (fluorescence quantum yield): fluorescein (Φfl = 0.85) as reference
Protocol: (§1) Optical characteristics of the compounds of the present invention, 3a (H2NBDP-PH), 3b (DiMeNBDP-PH), and 3c (DiEtNBDP-PH), and a compound not having an anilinic amino group as a pH detecting moiety, 3d (PhBDP-PH), as a control compound were measured.

[2] = pH-dependent change of fluorescence quantum yield and pKa by Henderson-Hasselbach equation; type: physicochemical; conditions: for pKa: Determined with Henderson-Hasselbach equation using fluorescence quantum yield; for pH-dependency of fluorescence intensity (fluorescence quantum yield): FIG. 1
Protocol: as §1

[3] = N-protonated form, pH 1.47 for 3a, pH 2.00 for 3b and 3c
[4] = control compound without anilinic amino group, no form or pH given

Row | Stokes' shift ([1]; N-nonprotonated form, pH 9.00) | ε ([1]; N-nonprotonated form, pH 9.00) | λabs, max ([1]; N-nonprotonated form, pH 9.00) | λem, max ([1]; N-nonprotonated form, pH 9.00) | Φfl (fluorescence quantum yield) ([1]; N-nonprotonated form, pH 9.00) | Stokes' shift [1, 3] | ε [1, 3] | λabs, max [1, 3] | λem, max [1, 3] | Φfl (fluorescence quantum yield) [1, 3] | pKa [2] | Stokes' shift [1, 4] | ε [1, 4] | λabs, max [1, 4] | λem, max [1, 4] | Φfl (fluorescence quantum yield) [1, 4] | Structure (SMILES) | pH-dependency of fluorescence intensity (fluorescence quantum yield) [2]
1 | 17 nm | 64400 M⁻¹ cm⁻¹ | 519 nm | 536 nm | 0.002 | 13 nm | 64100 M⁻¹ cm⁻¹ | 521 nm | 534 nm | 0.56 | 6.0 |  |  |  |  |  | CCN(CC)c1ccc(C2=C3C(C)=C(CCC(=O)O)C(C)=[N+]3[B-](F)(F)n3c(C)c(CCC(=O)O)c(C)c32)cc1 [Compound 3c, 1,3,5,7-Tetramethyl-2,6-bis-(2-carboxyethyl)-8-[4-(N,N-diethylamino)phenyl]-4,4-difluoro-4-bora-3a,4a-diaza-s-indacene] | pH-dependency following the Henderson-Hasselbach equation
2 | 17 nm | 71100 M⁻¹ cm⁻¹ | 519 nm | 536 nm | 0.002 | 13 nm | 72100 M⁻¹ cm⁻¹ | 520 nm | 533 nm | 0.55 | 3.8 |  |  |  |  |  | CC1=C(CCC(=O)O)C(C)=[N+]2C1=C(c1ccc(N)cc1)c1c(C)c(CCC(=O)O)c(C)n1[B-]2(F)F [Compound 3a, 1,3,5,7-Tetramethyl-2,6-bis-(2-carboxyethyl)-8-(4-aminophenyl)-4,4-difluoro-4-bora-3a,4a-diaza-s-indacene] | pH-dependency following the Henderson-Hasselbach equation
3 | 16 nm | 62300 M⁻¹ cm⁻¹ | 519 nm | 535 nm | 0.002 | 14 nm | 58900 M⁻¹ cm⁻¹ | 521 nm | 535 nm | 0.56 | 4.3 |  |  |  |  |  | CC1=C(CCC(=O)O)C(C)=[N+]2C1=C(c1ccc(N(C)C)cc1)c1c(C)c(CCC(=O)O)c(C)n1[B-]2(F)F [Compound 3b, 1,3,5,7-Tetramethyl-2,6-bis-(2-carboxyethyl)-8-[4-(N,N-dimethylamino)phenyl]-4,4-difluoro-4-bora-3a,4a-diaza-s-indacene] | pH-dependency following the Henderson-Hasselbach equation
4 |  |  |  |  |  |  |  |  |  |  |  | 14 nm | 73200 M⁻¹ cm⁻¹ | 520 nm | 534 nm | 0.56 | CC1=C(CCC(=O)O)C(C)=[N+]2C1=C(c1ccccc1)c1c(C)c(CCC(=O)O)c(C)n1[B-]2(F)F [Compound 3d, 1,3,5,7-Tetramethyl-2,6-bis-(2-carboxyethyl)-8-phenyl-4,4-difluoro-4-bora-3a,4a-diaza-s-indacene, reference compound] | 

From patent US8258171B2, “pH-sensitive fluorescent probe” (The University of Tokyo, priority 2006, dated 2012)
